Here are results for one compound from patent publication US20190055231A1, “BACE1 INHIBITORS” (Hoffmann-La Roche Inc., priority 2016, published 2019).

Molecules are shown by their SMILES.

As usually defined, the IC50 is the midpoint of a concentration-inhibition curve. For orientation: IC20 means the concentration at which the effect reaches the 20% level. The low end stands for greater potency, the high end for weaker potency.

The target in one series is BACE1 (Homo sapiens, UniProt P56817). The series is described as follows: Cellular Aβ-lowering assay (Abeta 40 AlphaLISA, HEK293 APP cells). The class given is cell-based. Also on record: endogenous in cells; host or cells: HEK293 APP cells. Conditions: HEK293 APP cells, Aβ40 in supernatant; read-out: BACE1 cell act. Aβ40 IC50. Here is the method: Cellular Aβ-Lowering Assay:
The Abeta 40 AlphaLISA Assay can be used. The HEK293 APP cells were seeded in 96 well Microtiter plates in cell culture medium (Iscove's, plus 10% (v/v) fetal bovine serum, penicillin/streptomycin) to about 80% confluency and the compounds were added at a 3× concentration in ⅓ volume of culture medium (final DMSO concentration was kept at 1% v/v). After 18-20 hrs incubation at 37° C. and 5% CO2 in a humidified incubator, the culture supernatants were harvested for the determination of AP 40 concentrations using Perkin-Elmer Human Amyloid beta 1-40 (high specificity) Kit (Cat#AL275C).
In a Perkin-Elmer White Optiplate-384 (Cat#6007290), 2 ul culture supernatants were combined with 2 μl of a 10× AlphaLISA Anti-hAP Acceptor beads+Biotinylated Antibody Anti-Aβ 1-40 Mix (50 μg/mL/5 nM). After 1 hour room temperature incubation, 16 μl of a 1.25× preparation of Streptavidin (SA) Donor beads (25 μg/mL) were added and incubated for 30 minutes in the Dark. Light Emission at 615 nm was then recorded using EnVision-Alpha Reader. Levels of AP 40 in the culture supernatants were calculated as percentage of maximum signal (cells treated with 1% DMSO without inhibitor). The IC50 value were calculated using the Excel XLfit software.
Cellular Aβ-Lowering Assay (Cell-Based Assay)
The determination of BACE1 activity can be either measured by using an enzymatic cell-free fluorescence assay (BACE1 cell free, table 2) or by a whole cell assay using HEK293 APP cells (Cellular Aβ-lowering, table 2). Both assays are suitable to determine BACE1 inhibition.
A general note: Bead proximity is the source of the signal in Alpha formats.

Another series has as its target hERG channel (Homo sapiens, UniProt Q12809). Briefly: hERG IC20 assay. The format is cell-based. Particulars: human, hERG IC20 assay. The source says:
The methods to determine the hERG IC20 values was described in Industrializing electrophysiology: HT automated patch clamp on SyncroPatch® 96 using instant frozen cells. Polonchuk L., Methods Mol Biol. 2014; 1183:81-92. (doi: 10.1007/978-1-4939-1096-0_5.) PMID:25023303
QT prolongation is a cardiovascular risk caused by drug candidates which inhibit the hERG channel (human ether a go-go). A sufficient safety margin between the hERG IC20 value and the free plasma concentration necessary to achieve the envisaged thereapeutic effects is desired (ICH. The nonclinical evaluation of the potential for delayed ventricular repolarization (QT interval prolongation) by human pharmaceuticals (S7B), issued as CPMP/ICH/423/02, adopted by CHMP in May 2005 (http://www.ich.org/cache/compo/276-254-1.html; Redfern W S, Carlsson L, Davis A S, Lynch W G, MacKenzie I, Palethorpe S, Siegl P K, Strang I, Sullivan A T, Wallis R, Camm A J, Hammond T G. Relationships between preclinical cardiac electrophysiology, clinical QT interval prolongation and torsade de pointes for a broad range of drugs: evidence for a provisional safety margin in drug development. Cardiovasc Res. 2003 Apr. 1; 58(1):32-45.)). Reducing the activity against efflux transporters expressed at the blood-brain-barrier such as P-glycoprotein P-gp, might result in reduction of the free plasma concentration by optimizing brain penetration.

Sequence of hERG channel (Q12809 whole entry): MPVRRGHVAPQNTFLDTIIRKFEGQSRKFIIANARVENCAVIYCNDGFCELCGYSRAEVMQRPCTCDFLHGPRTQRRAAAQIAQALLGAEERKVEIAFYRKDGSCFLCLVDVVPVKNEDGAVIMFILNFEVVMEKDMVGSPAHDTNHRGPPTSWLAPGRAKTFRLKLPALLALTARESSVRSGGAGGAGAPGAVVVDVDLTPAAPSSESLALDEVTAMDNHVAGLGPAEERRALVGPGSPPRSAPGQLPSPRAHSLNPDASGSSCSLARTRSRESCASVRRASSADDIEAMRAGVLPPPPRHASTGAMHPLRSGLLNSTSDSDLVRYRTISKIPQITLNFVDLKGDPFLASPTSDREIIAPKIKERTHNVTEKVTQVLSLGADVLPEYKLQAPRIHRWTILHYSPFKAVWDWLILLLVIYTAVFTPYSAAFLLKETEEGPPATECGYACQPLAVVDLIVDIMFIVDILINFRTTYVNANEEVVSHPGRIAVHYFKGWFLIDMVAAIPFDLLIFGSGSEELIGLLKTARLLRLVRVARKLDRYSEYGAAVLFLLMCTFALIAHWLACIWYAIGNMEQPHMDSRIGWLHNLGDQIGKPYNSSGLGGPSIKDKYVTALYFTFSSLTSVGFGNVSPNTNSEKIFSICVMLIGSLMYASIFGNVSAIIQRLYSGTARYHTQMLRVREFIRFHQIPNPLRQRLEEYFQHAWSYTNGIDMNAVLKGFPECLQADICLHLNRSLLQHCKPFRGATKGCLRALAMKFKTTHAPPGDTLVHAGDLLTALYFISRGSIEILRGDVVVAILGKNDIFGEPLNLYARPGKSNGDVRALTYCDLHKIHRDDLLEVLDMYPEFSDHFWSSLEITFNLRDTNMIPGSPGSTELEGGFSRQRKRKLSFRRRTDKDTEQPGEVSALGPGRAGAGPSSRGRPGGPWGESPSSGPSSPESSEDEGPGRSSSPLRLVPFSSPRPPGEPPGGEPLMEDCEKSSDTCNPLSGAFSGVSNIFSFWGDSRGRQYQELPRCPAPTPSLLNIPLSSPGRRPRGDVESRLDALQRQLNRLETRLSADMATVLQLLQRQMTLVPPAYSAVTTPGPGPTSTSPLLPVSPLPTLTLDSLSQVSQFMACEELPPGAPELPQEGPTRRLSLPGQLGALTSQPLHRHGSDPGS
Sequence of BACE1 (P56817 46-501): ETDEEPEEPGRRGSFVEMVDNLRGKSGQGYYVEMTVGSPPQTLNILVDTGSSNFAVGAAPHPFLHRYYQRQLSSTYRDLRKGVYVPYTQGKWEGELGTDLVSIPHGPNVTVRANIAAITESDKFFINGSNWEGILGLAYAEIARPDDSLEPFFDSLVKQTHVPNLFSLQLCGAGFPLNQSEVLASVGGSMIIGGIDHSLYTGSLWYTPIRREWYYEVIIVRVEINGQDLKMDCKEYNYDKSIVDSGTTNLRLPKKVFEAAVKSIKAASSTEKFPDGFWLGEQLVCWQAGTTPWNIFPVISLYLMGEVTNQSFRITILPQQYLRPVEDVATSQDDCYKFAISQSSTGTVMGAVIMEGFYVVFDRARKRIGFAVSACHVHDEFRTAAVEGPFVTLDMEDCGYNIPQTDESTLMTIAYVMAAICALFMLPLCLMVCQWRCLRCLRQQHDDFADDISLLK

For the compound `Cc1cc(C#N)cnc1C(=O)Nc1ccc(F)c([C@@]2(C)N=C(N)O[C@H](C(F)(F)F)[C@@H]2F)n1` [Example 1, N-(6-((4R,5R,6S)-2-amino-5-fluoro-4-methyl-6-(trifluoromethyl)-5,6-dihydro-4H-1,3-oxazin-4-yl)-5-fluoropyridin-2-yl)-5-cyano-3-methylpicolinamide], the IC50 on BACE1 came out at 15 nM. Besides, the IC20 against hERG channel (instant frozen cells (hERG channel; cell line not named)) and against hERG channel was over 1000 nM each time.
